Test [1] relates to CT26.CL25 colon cancer tumor endothelial cells. Kind of test: Colon CT26 ex vivo model of tumor angiogenesis. Type of test: cell-based, mouse. The conditions noted are these: for cytotoxicity at 40 µM / cytotoxicity at 10 µM: Mus musculus, Endothelial cell, 48 h, read-out: Cell death. The procedure, abridged: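 Cell death was read by FDA (live, green) and PI (dead, red) fluorescence imaging, e.g. 48 h after treatment. Treatment began once endothelial cells had grown out of Matrigel-embedded CT26 colon tumor fragments, typically after 7 days of culture in endothelial growth medium at 37 °C.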

Test [2] has as its system LL/2 lung cancer tumor endothelial cells. Kind of test: Lung LL2 ex vivo model of tumor angiogenesis. The format is cell-based, mouse. The conditions noted are these: for 48 hrs (morphology observations): LL/2 tumor endothelial cells; for Cell death: drug treatment for two days, ratio of red area to total endothelial cell area; for cytotoxicity at 20 µM / cytotoxicity at 40 µM: Mus musculus, Endothelial cell, 48 h, read-out: Cell death. Summed up:
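Live/dead imaging with FDA and PI, taken e.g. 48 h post-drug under fixed channel settings, measures treatment effects on endothelial cells sprouting from Lewis lung tumor explants. Explants were seeded in Matrigel drops and grown ~4 days in endothelial growth medium, 37 °C, 5% CO2, before dosing.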

Each structure is given as a SMILES string.

As to `CCCCCCCOc1ccc(S(=O)(=O)c2cnc3ccc(SC)cc3c2N2CCCN(C)CC2)cc1` [Compound 218], in test [1] (Conc. 40 μm), the “48 hrs (morphology observations after 48 hours)” value is “*** (100% of endothelial cells vesicularize in cell shape)”. Besides, in test [1], the cytotoxicity at 40 µM amounted to 90%. Besides, in test [2] (40 μm), the “48 hrs (morphology observations)” value is “**** (100% of endothelial cells vesicularize in cell shape and look flattened in morphology (indicating disintegration of the cell body))”; the Cell death is given as 100%.

With `CCOC(=O)C1CCN(c2c(S(=O)(=O)c3ccc(CC)cc3)cnc3ccc(OC(F)(F)F)cc23)CC1` [Compound 47], the “48 hrs (morphology observations after 48 hours)” value in test [1] (Conc. 40 μm) is given as 0. For the same compound, the cytotoxicity at 40 µM in test [1] is 10%. Also, the Cell death in test [2] (40 μm) came to 50%.

As to `COc1ccc(S(=O)(=O)c2cnc3ccc(OC(F)(F)F)cc3c2-n2cncn2)cc1OC` [Compound 89], the “48 hrs (morphology observations after 48 hours)” value in test [1] (Conc. 10 μm) was “*** (100% of endothelial cells vesicularize in cell shape)”. The cytotoxicity at 10 µM in test [1] was 100%. Further, in test [2] (20 μm), the “48 hrs (morphology observations)” value was “*** (more than 50% but less than 100% of endothelial cells vesicularize in cell shape)”. Besides, the cytotoxicity at 20 µM in test [2] was 100%.

For the compound `CCCCOc1ccc(S(=O)(=O)c2cnc3ccc(C(=O)OCC)cc3c2N2CCC(N3CCC(c4ccccc4)CC3)CC2)cc1` [Compound 215], in test [1] (Conc. 40 μm), the “48 hrs (morphology observations after 48 hours)” value came out at 0. Besides, the cytotoxicity at 40 µM in test [1] worked out at 20%; in test [2], 30%. For the same compound, in test [2] (40 μm), the “48 hrs (morphology observations)” value came to 0.

Regarding `CCOC(=O)c1ccc2ncc(S(=O)(=O)c3ccc(CC)cc3)c(-n3cncn3)c2c1` [Compound 80], in test [1] (Conc. 10 μm), the “48 hrs (morphology observations after 48 hours)” value is “*** (100% of endothelial cells vesicularize in cell shape)”. For the same compound, the cytotoxicity at 10 µM in test [1] stood at 100%. In test [2] (20 μm), the “48 hrs (morphology observations)” value is reported as “*** (more than 50% but less than 100% of endothelial cells vesicularize in cell shape)”. The cytotoxicity at 20 µM in test [2] was determined as 100%.

As for `CCCN(CCC)c1c(S(=O)(=O)c2ccc(OC)c(OC)c2)cnc2ccc(OC(F)(F)F)cc12` [Compound 71], the “48 hrs (morphology observations after 48 hours)” value in test [1] (Conc. 40 μm) is recorded as 0. Besides, in test [1], the cytotoxicity at 40 µM amounted to 0%. Also, in test [2] (40 μm), the “48 hrs (morphology observations)” value is “* (50% or less of cells vesicularize in cell shape)” and the Cell death is recorded as 10%.

Regarding `CCOC(=O)c1ccc2ncc(S(=O)(=O)c3ccc(CC)cc3)c(N3CCC(O)CC3)c2c1` [Compound 62], the “48 hrs (morphology observations after 48 hours)” value in test [1] (Conc. 40 μm) is “** (more than 50% but less than 100% of endothelial cells vesicularize in cell shape)”. Also, the cytotoxicity at 40 µM in test [1] turned out to be 70%. Moreover, in test [2] (40 μm), the “48 hrs (morphology observations)” value was “*** (more than 50% but less than 100% of endothelial cells vesicularize in cell shape)” and the Cell death is 30%.

With `CCc1ccc(S(=O)(=O)c2cnc3ccc(C(=O)O)cc3c2N2CCC(N3CCCCC3)CC2)cc1` [Compound 67], the “48 hrs (morphology observations after 48 hours)” value in test [1] (Conc. 40 μm) came out at 0. In addition, the cytotoxicity at 40 µM in test [1] was found to be 0%. The Cell death in test [2] (40 μm) worked out at 10%.

`COc1ccc(S(=O)(=O)c2cnc3ccc(OC(F)(F)F)cc3c2N2CCC(N3CCCCC3)CC2)cc1OC` [Compound 56]: the “48 hrs (morphology observations after 48 hours)” value in test [1] (Conc. 40 μm) is given as 0. The cytotoxicity at 40 µM in test [1] was found to be 30%. Further, in test [2] (40 μm), the “48 hrs (morphology observations)” value was “* (50% or less of cells vesicularize in cell shape)” and the Cell death was 20%.

For `CN1CCN(Nc2c(S(=O)(=O)c3ccc(OC(F)(F)F)cc3)cnc3ccc(OC(F)(F)F)cc23)CC1` [Compound 90], in test [1] (Conc. 40 μm), the “48 hrs (morphology observations after 48 hours)” value is 0. Also, the cytotoxicity at 40 µM in test [1] was found to be 0%; in test [2], 10%. In test [2] (40 μm), the “48 hrs (morphology observations)” value is listed as 0.

On to `CCOC(=O)c1ccc2ncc(S(=O)(=O)c3ccc(CC)cc3)c(NN3CCN(C)CC3)c2c1` [Compound 84], for which the “48 hrs (morphology observations after 48 hours)” value in test [1] (Conc. 40 μm) is recorded as “* (50% or less of cells vesicularize in cell shape)”. For the same compound, the cytotoxicity at 40 µM in test [1] and in test [2] was 100% in each case.

As for `CCc1ccc(S(=O)(=O)c2cnc3ccc(OC(F)(F)F)cc3c2N2CCC3(CC2)OCCO3)cc1` [Compound 52], the “48 hrs (morphology observations after 48 hours)” value in test [1] (Conc. 40 μm) was 0. The cytotoxicity at 40 µM in test [1] was determined as 0%. Besides, the Cell death in test [2] (40 μm) worked out at 50%.

For the compound `COc1ccc(S(=O)(=O)c2cnc3ccc(OC(F)(F)F)cc3c2N2CCCC(O)C2)cc1OC` (stereo not shown) [Compound 70], in test [1] (Conc. 40 μm), the “48 hrs (morphology observations after 48 hours)” value stood at 0. Moreover, the cytotoxicity at 40 µM in test [1] turned out to be 10%. Moreover, in test [2] (40 μm), the “48 hrs (morphology observations)” value is recorded as “*** (more than 50% but less than 100% of endothelial cells vesicularize in cell shape)” and the Cell death was 40%.

In the case of `CCN(CC)C(=O)c1ccc2ncc(S(=O)(=O)c3ccc(OC)cc3)c(N3CCCN(C)CC3)c2c1` [Compound 165], the “48 hrs (morphology observations after 48 hours)” value in test [1] (Conc. 40 μm) stood at 0. The cytotoxicity at 40 µM in test [1] and in test [2] was 10% throughout. Further, the “48 hrs (morphology observations)” value in test [2] (40 μm) is listed as “* (50% or less of cells vesicularize in cell shape)”.

On to `CCCCOc1ccc(S(=O)(=O)c2cnc3ccc([S+](C)[O-])cc3c2N2CCCN(C)CC2)cc1` (stereo not shown) [Compound 163], for which the “48 hrs (morphology observations after 48 hours)” value in test [1] (Conc. 40 μm) was “**** (100% of endothelial cells vesicularize in cell shape and look flattened in morphology (indicating disintegration of the cell body))”. Moreover, in test [1], the cytotoxicity at 40 µM is 100%. For the same compound, in test [2] (40 μm), the “48 hrs (morphology observations)” value is “**** (100% of endothelial cells vesicularize in cell shape and look flattened in morphology (indicating disintegration of the cell body))”; the Cell death turned out to be 95%.

Take `CCCCOc1ccc(S(=O)(=O)c2cnc3ccc(C(=O)OCC)cc3c2N2CCC(N3CCC(O)CC3)CC2)cc1` [Compound 161]: the “48 hrs (morphology observations after 48 hours)” value in test [1] (Conc. 40 μm) was “**** (100% of endothelial cells vesicularize in cell shape and look flattened in morphology (indicating disintegration of the cell body))”. In test [1], the cytotoxicity at 40 µM was 100%. For the same compound, in test [2] (40 μm), the “48 hrs (morphology observations)” value is “**** (100% of endothelial cells vesicularize in cell shape and look flattened in morphology (indicating disintegration of the cell body))”; the Cell death worked out at 90%.

For `CCc1ccc(S(=O)(=O)c2cnc3ccc(C(=O)O)cc3c2N2CCC(O)CC2)cc1` [Compound 65], in test [1] (Conc. 40 μm), the “48 hrs (morphology observations after 48 hours)” value amounted to 0. For the same compound, the cytotoxicity at 40 µM in test [1] came to 0%. The Cell death in test [2] (40 μm) came to 10%.

For `CCc1ccc(S(=O)(=O)c2cnc3ccc(C(=O)O)cc3c2N2CCCN(C)CC2)cc1` [Compound 66], the “48 hrs (morphology observations after 48 hours)” value in test [1] (Conc. 40 μm) amounted to 0. Besides, the cytotoxicity at 40 µM in test [1] was 0%. The Cell death in test [2] (40 μm) is 10%.

On to `COc1ccc(S(=O)(=O)c2cnc3ccc(OC(F)(F)F)cc3c2-n2cncn2)cc1` [Compound 86], for which, in test [1] (Conc. 10 μm), the “48 hrs (morphology observations after 48 hours)” value is listed as “*** (100% of endothelial cells vesicularize in cell shape)”. Besides, in test [1], the cytotoxicity at 10 µM came to 100%. Further, the “48 hrs (morphology observations)” value in test [2] (20 μm) is reported as “*** (more than 50% but less than 100% of endothelial cells vesicularize in cell shape)”. Besides, the cytotoxicity at 20 µM in test [2] amounted to 100%.

Regarding `CCCCOc1ccc(S(=O)(=O)c2cnc3ccc([S+](C)[O-])cc3c2N2CCC(N3CCCC(O)C3)CC2)cc1` (stereo not shown) [Compound 208], the “48 hrs (morphology observations after 48 hours)” value in test [1] (Conc. 40 μm) amounted to 0. For the same compound, the cytotoxicity at 40 µM in test [1] is 20%. Further, the Cell death in test [2] (40 μm) turned out to be 50%.

Consider `CCCCOc1ccc(S(=O)(=O)c2cnc3ccc(C(=O)OCC)cc3c2N2CCSCC2)cc1` [Compound 191], for which the “48 hrs (morphology observations after 48 hours)” value in test [1] (Conc. 40 μm) amounted to 0. In addition, the cytotoxicity at 40 µM in test [1] came to 10%. Moreover, in test [2] (40 μm), the Cell death came to 30%.

Values taken from US20250230226A1, “PLXDC1/PLXDC2 ACTIVATORS AND THEIR USE IN THE TREATMENT OF BLOOD VESSEL DISORDERS” (THE REGENTS OF THE UNIVERSITY OF CALIFORNIA, priority 2019, published 2025).
